Key:
viral NAs = assay type: biochemical, reverse-genetic influenza A viruses rgH1N1, rgH5N1, rgH1N3
rgH5N1 NA = rgH5N1 NA (Influenza A virus, UniProt Q6DPL2); assay type: biochemical
Sequence of rgH5N1 NA (Q6DPL2 whole entry, looked up): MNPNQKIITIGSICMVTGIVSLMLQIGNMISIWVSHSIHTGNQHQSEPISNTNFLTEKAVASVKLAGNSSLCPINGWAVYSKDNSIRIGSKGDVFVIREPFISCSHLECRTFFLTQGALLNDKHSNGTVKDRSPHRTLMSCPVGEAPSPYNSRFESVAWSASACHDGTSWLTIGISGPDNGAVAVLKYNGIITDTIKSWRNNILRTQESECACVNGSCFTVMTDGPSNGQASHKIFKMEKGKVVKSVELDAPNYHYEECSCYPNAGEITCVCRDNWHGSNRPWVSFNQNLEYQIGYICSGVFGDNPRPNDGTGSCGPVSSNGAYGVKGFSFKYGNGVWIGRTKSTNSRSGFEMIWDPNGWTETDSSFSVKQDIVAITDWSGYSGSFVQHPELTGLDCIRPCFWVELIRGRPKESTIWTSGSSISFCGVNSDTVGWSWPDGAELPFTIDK

`CC(=O)N[C@@H]1[C@@H](O)C[C@](Oc2ccc3c(C)cc(=O)oc3c2)(C(=O)O)O[C@H]1C(O)[C@H](O)CO` (stereo partly drawn) [MUNANA, 2′-(4-methylumbelliferyl)-α-D-N-acetylneuraminic acid] was tested, and the Km (viral NAs) was 15 to 18 µM and the Km (rgH5N1 NA) was 15 ± 3 µM.

From PMC7112848 (Journal of Virological Methods, 2008)
